Assay results taken from patent US9321804B2, “Synthesis and use of anti-tumor drug LQC-Y” (Beijing University of Chinese Medicine, priority 2011, dated 2016).
“Also recorded” adds a separate entry of the source.

Columns and labels:
[1] = tested on: small vessel growth of CAM model; test: Effect of LQC-Y on tumor angiogenesis using CAM method (small vessel count); type: in vivo, chicken; conditions: compared with the blank group
Description: Aseptic gelatin sponge, which was made into a wafer having a diameter of 5 mm by a hole-puncher in advance, was used as sample carrier. The prepared derivatives of bromotetramethylpyrazine series were added thereinto in an aseptic environment and different dosage groups were set according to the difference of the molecular weight of each medicine, including 10 μg/chicken embryo, 20 μg/chicken embryo and 40 μg/chicken embryo. The 0.9% physiological saline was used in a blank group. The samples were air-dried in an aseptic environment.
A hatching egg after disinfection was put into a 37° C. incubation box with air sac upward until the seventh day of incubation. The egg embryo was disinfected using alcohol at a super clean bench, and then a small hole was drilled at the top of the egg embryo using a dental drill, and the nearby egg shell and shell membrane were removed carefully to form a opening with the size of about 1.2 cm×1.2 cm. […]
After the incubation, the transparent tape blocking the chicken embryo air sac was softly removed with a nipper. […] The effect of the compounds on angiogenesis was evaluated by the count analytic method using the numbers of great vessels, medium vessels and small vessels arranged radially around the carrier. […]

[2] = tested on: Human hepatoma carcinoma cells Bel7402; test: Proliferation of human hepatoma carcinoma cells Bel7402 by MTT; type: cell-based; conditions: for 24 h inhibition ratio (%): Bel7402 cells; for inhibiting effect on the proliferation of Bel7402 cells: cultured in vitro, 10-40 μg/ml
Description: Human hepatoma carcinoma cells Bel7402 were recovered and subcultured using a culture flask. The preparation of the experiment was started when the cell growth entered into the exponential growth phase. The cells were then digested using pancreatic enzyme which had been filtrated at an increased pressure to prepare the cell suspension. After that the suspension was dyed for 3 min with 0.4% trypan blue. Then a blood cell counting plate was used to count the living cells which were not dyed and the dead cells which were dyed to blue. The number of the living cells identified by trypan blue was more than 98%.
Three kinds of cells which were in the exponential growth phase were inoculated at the density of 1×10^4/ml, to a 96-well plate, 200 μl for each well. Then the plate was put in a 37° C. 5% CO2 incubation box to be cultured for 24 h. The cultivation liquid was sucked away and 200 μl LQC-Y solutions of different concentrations were added thereinto (prepared with DMEM cultivation liquid containing 4% calf serum and the final concentration of which respectively were 10 μg, 20 μg, 40 μg), 4 parallel wells for each concentration. Supernatant cultivation liquid 100 μl was sucked away carefully from each well after being cultured for 24 h and 48 h, and MTS 20 μl was added into each well and homogeneously mixed. The resultant liquid was cultured in a 37° C. 5% CO2 incubation box for a further 1 h. An enzyme-labeling quantitative instrument was used to measure the absorbance at 492 nm. The experiment was repeated for 3 times and then an inhibition ratio was calculated.
The inhibition ratio of cell proliferation (%)=[(average OD value of control group-average OD value of the administration group)/average OD value of control group]×100%

S180 sarcoma of mice = test: Tumor inhibiting effect of LQC-Y2 in tumor bearing S180 mice; conditions: for Tumor inhibiting ratio (%) / Tumor weight: S180 Balb/C mice, 15 days
Description: The S180 mice that had been inoculated for 7 days were killed by breaking the neck thereof and ascites was taken from the mice respectively in an aseptic environment and the ascites was washed using RPMI1640 culture medium for 2 times and then made into a […] /ml cell suspension using aseptic physiological saline. Then the obtained S180 cell suspension was inoculated hypodermically at the right axillary of mice, 0.1 ml for each mouse and 50 mice total, to establish the solid tumor model.
60 mice were divided into 2 categories, including 6 groups, according to the random number table method, i.e. normal control group of the first category, and S180 solid tumor groups of the second category which included positive (cyclophosphamide) control group, negative control group, small dosage group, middle dosage group and large dosage group, 10 mice for each group. The experiment was repeated for 3 times.
LQC-Y2 was made into an emulsion using corn oil. The dosage of the small dosage group was 75 mg/Kg, the dosage of the middle dosage group was 150 mg/Kg, and the dosage of the large dosage group was 300 mg/kg. Equal volume of corn oil was injected into the mice of the negative control group, cyclophosphamide injection 0.02 g/(Kg.d) was injected into the mice of the positive control group. These medicines were administrated 0.1 ml per mouse by intraperitoneal injection every the other day continuously for 15 days. During this period, the common behavior, hair and excrement and so on were observed daily. The mice that had been inoculated with S180 by hypodermic inoculation were killed by breaking the necks thereof after 24 h after the last administration and the tumor, liver and spleen were then taken.
The weight of the solid tumor group mice were measured after all the administration was over and then the mice were killed. The spleens and the livers thereof were weighed by an electronic balance. The spleen index was calculated as the spleen weight of a mouse (mg)/the body weight of a mouse(g) and the liver index was calculated as the liver weight of a mouse[…]/the body weight of a mouse(g).
The solid tumor negative control group mice were weighed on the next day after the administration was finished (the eyeballs of the mice were removed to bleed and the serum was collected for subsequent experimental use). Then the mice were killed by breaking the neck thereof. The tumor tissues were taken out and weighed by an electronic balance to calculate the tumor-inhibiting ratio.
All the data were statistically analyzed using SPSS11.0 software pack. The comparison of the enumeration data was carried out with X^2 test. P<0.05 had statistical significance.

[3] = tested on: Human hepatoma carcinoma cells Bel7402; test: Proliferation of human hepatoma carcinoma cells Bel7402 by MTT; type: cell-based; conditions: 40 μg/ml
[4] = large dosage 300 mg/kg i.p. every other day
[5] = middle dosage 150 mg/Kg i.p. every other day
[6] = small dosage 75 mg/Kg i.p. every other day

SMILES	vessel growth inhibiting effect [1]	24 h inhibition ratio (%) ([2]; 10 μg/ml)	24 h inhibition ratio (%) ([2]; 20 μg/ml)	inhibiting effect on the proliferation of Bel7402 cells [2]	effect on the growth of the sarcoma of S180 mice (S180 sarcoma of mice; 75-300 mg/kg i.p.)	Tumor inhibiting ratio (%) (S180 sarcoma of mice; [4])	Tumor weight (S180 sarcoma of mice; [4])	Tumor inhibiting ratio (%) (S180 sarcoma of mice; [5])	Tumor weight (S180 sarcoma of mice; [5])	Tumor inhibiting ratio (%) (S180 sarcoma of mice; [6])	Tumor weight (S180 sarcoma of mice; [6])	effect on the growth of the S180 sarcoma mice's weight (S180 sarcoma of mice; mouse, in vivo)	24 h inhibition ratio (%) [3]
Cc1nc(C)c(COC(=O)CCC(C)C2CCC3C4CCC5CC(O)CCC5(C)C4CC(O)C23C)nc1C (stereo not drawn) [LQC-Y2, (3,5,6-trimethyl pyrazine-2-yl)methyl-4-(3,12-dihydroxy-10,13-dimethylhexadecahydro-1H-cyclopenta[a]phenanthren-17-yl)pentanoate]	significant inhibiting effect; also recorded: magnificent inhibiting effect	20.09%	61.2%	evident inhibiting effect	Some Effect on Inhibiting the Growth; also recorded: inhibit the growth of S180 tumor effectively	29.15%	0.92 ± 0.49 g	35.88%	0.84 ± 0.53 g	6.87%	1.22 ± 0.62 g	no effect	66.98%
COc1cc(/C=C/C(=O)CC(=O)/C=C/c2ccc(OCc3nc(C)c(C)nc3C)c(OC)c2)ccc1OCc1nc(C)c(C)nc1C [LQC-Y8, (1E,6E)-1,7-bis(3-methoxy-4-((3,5,6-trimethylpyrazine-2-yl)methoxy)phenyl)heptyl-1,6-diene-3,5-diketone]	significant inhibiting effect; also recorded: magnificent inhibiting effect	39.31%	44.58%	evident inhibiting effect									54.07%
